Values after ≈ are worked out from the molar mass of the structure shown.
How the values were obtained:
[1] = system: Sarcina lutea ATCC 9341; assay: MIC against Sarcina lutea ATCC 9341 (Table 6); format: cell-based; settings: Micrococcus luteus, ATCC9341
[2] = system: Bacilus subtilis CPI 219; assay: MIC against Bacilus subtilis CPI 219 (Table 6); format: cell-based
[3] = system: Corynebacterium diphtheriae P.W.8; assay: MIC against Corynebacterium diphtheriae P.W.8 (Table 6); format: cell-based
[4] = system: Micrococcus flavis ATCC 10240; assay: MIC against Micrococcus flavis ATCC 10240 (Table 6); format: cell-based; settings: ATCC10240
[5] = system: Trichophyton mentagrophytes IAM 8051; assay: MIC against Trichophyton mentagrophytes IAM 8051 (Table 6); format: cell-based; settings: IAM8051

| Structure (SMILES) | solubility in chloroform | MIC [1] | MIC [2] | MIC [3] | MIC [4] | MIC [5] |
| --- | --- | --- | --- | --- | --- | --- |
| COC(=O)C12Oc3ccc(-c4ccc5c(c4O)C(=O)C4=C(O)CC(C)C(O)C4(C(=O)OC)O5)c(O)c3C(=O)C1=C(O)CC(C)C2O (single isomer, unassigned) [Compound I, secalonic acid A having a 2,2'-linkage, reference compound] | insoluble | – | – | – | – | – |
| COC(=O)C12Oc3ccc(-c4ccc5c(c4O)C(=O)C4=C(O)CC(C)C(O)C4(C(=O)OC)O5)c(O)c3C(=O)C1=C(O)CC(C)C2O (centres unmarked) [2,2'-SD, secalonic acid D having a 2,2'-linkage, reference compound] | – | > 100 µg/mL | > 100 µg/mL | 50 µg/mL (≈ 78.3 µM) | 100 µg/mL (≈ 157 µM) | 12.5 µg/mL (≈ 19.6 µM) |
| COC(=O)C12Oc3ccc(-c4ccc(O)c5c4OC4(C(=O)OC)C(=C(O)CC(C)C4O)C5=O)c(O)c3C(=O)C1=C(O)CC(C)C2O (centres unmarked) [2,4'-SD, secalonic acid D having a 2,4'-linkage] | – | 12.5 µg/mL (≈ 19.6 µM) | 50 µg/mL (≈ 78.3 µM) | 12.5 µg/mL (≈ 19.6 µM) | 25 µg/mL (≈ 39.1 µM) | 3.1 µg/mL (≈ 4.85 µM) |
| COC(=O)C12Oc3c(-c4ccc(O)c5c4OC4(C(=O)OC)C(=C(O)CC(C)C4O)C5=O)ccc(O)c3C(=O)C1=C(O)CC(C)C2O (centres unmarked) [4,4'-SD, secalonic acid D having a 4,4'-linkage] | – | 3.1 µg/mL (≈ 4.85 µM) | 12.5 µg/mL (≈ 19.6 µM) | 6.3 µg/mL (≈ 9.87 µM) | 12.5 µg/mL (≈ 19.6 µM) | 1.6 µg/mL (≈ 2.51 µM) |
| COC(=O)[C@]12Oc3ccc(-c4ccc5c(c4O)C(=O)C4=C(O)C[C@@H](C)[C@H](OC=O)[C@@]4(C(=O)OC)O5)c(O)c3C(=O)C1=C(O)C[C@@H](C)[C@@H]2OC=O [diformyl derivative of Compound I, diformyl derivative of secalonic acid A having a 2,2'-linkage] | soluble | – | – | – | – | – |

From patent US4424373A, “Secalonic acids” (priority 1979, dated 1984)
